The values below come from article PMC9623849 (iScience, 2022).

Like-named read-outs stand apart in the source and are kept apart here.

The subject of series [1] is SARS-CoV-2 WK-521 (ancestral Wuhan strain). The format is cell-based. Conditions: Table 2; VeroE6 cells, RNA-qPCR. For orientation: In qPCR the cycle at which signal appears reflects the starting amount.
In the next series the target is SARS-CoV-2 M^pro/3CL^pro (Severe acute respiratory syndrome coronavirus 2, UniProt P0DTD1). In words: biochemical. As to conditions: for IC50 fold change to 5h (in parentheses): Table 1.
For series [2] the following is noted: mice.
Series [3] deals with SARS-CoV-2 WK-521 infected VeroE6 cells. Conditions: concentrations up to 100 μM (Figure S3).
The next series can be described thus: in vitro. As to conditions: African green monkey, CC50, Table 1; VeroE6 cells, WST-8. Background: Tetrazolium dyes change colour on reduction, which living cells bring about.
The next series in a line: in vivo. As to conditions: female, Jcl:ICR (ICR), mouse, iv, 2 mg/kg, mice, i.v. 2.0 mg/kg, 240 min.

What is called EC75 is the concentration needed for an effect of 75%. Lower therefore signals greater potency. As usually defined, the EC99 is the point of the concentration-response curve where the effect stands at 99%. Read a low EC99 as greater potency. As usually defined, the IC50 is the midpoint of a concentration-inhibition curve. A high value points to a need for much substance. What is called CC50 is the concentration at which the toxic effect on the cells reaches its halfway point. Regarding `COc1ccc(F)c2[nH]c(C(=O)N[C@@H](CC(C)C)C(=S)N[C@@H](C[C@@H]3CCNC3=O)C(=O)c3nc4c(F)cccc4s3)cc12` [Compound 4], in series [1], the 75% effect concentration (EC75) was determined as 590 ± 30 nM and the EC99 came to 4.1 ± 3.1 µM. Further, at SARS-CoV-2 M^pro/3CL^pro, the midpoint of inhibition, the IC50, lay at 370 ± 15 nM and the “IC50 fold change to 5h (in parentheses)” value is reported as 1.0. For the same compound, in series [2] (i.p. 20 mg/kg), the “blood concentrations after administration” value (“blood concentrations” below) is recorded as “maintained remarkably higher blood concentrations than compound 3”. In addition, the “blood concentrations” value in series [2] (i.v. 2.0 mg/kg) is “higher blood concentrations of compound 4 were maintained compared with those of compound 3 after 60 min, and even 240 min”. In addition, the “blood concentrations” value in series [2] (p.o.) is on record as “maintained remarkably higher blood concentrations for the first day than compound 3”. The “cytotoxicity in immunostaining experiments” value in series [3] is “no significant cytotoxicity at concentrations up to 100 μM”. Besides, the 50% cytotoxic concentration (CC50) in “in vitro” is above 100000 nM.
As to `CC(C)C[C@H](NC(=O)c1cc2c(F)cc(F)cc2[nH]1)C(=O)N[C@@H](C[C@@H]1CCNC1=O)C(=O)c1nc2cc(F)ccc2s1` [Compound 54], on SARS-CoV-2 M^pro/3CL^pro, 540 ± 20 nM corresponded to half-maximal inhibition (IC50) and the “IC50 fold change to 5h (in parentheses)” value was determined as 1.5. Besides, the CC50 in “in vitro” was above 100000 nM.
For orientation: half-life means the time needed for the level to fall by half in the phase considered. In series [1], `CC(C)(C)[C@H](NC(=O)C(F)(F)F)C(=O)N1C[C@H]2[C@@H]([C@H]1C(=O)N[C@H](C#N)C[C@@H]1CCNC1=O)C2(C)C` [PF-07321332 (1), Nirmatrelvir, reference compound] showed an EC75 of 4400 ± 210 nM and an EC99 of 9.7 ± 0.015 µM. In addition, in “in vivo”, the half-life was below 23 min. Further, the cytotoxic concentration (CC50) in the series “in vitro” is above 100000 nM.
For the compound `CC(C)C[C@H](NC(=O)c1cc2c(F)ccc(F)c2[nH]1)C(=O)N[C@@H](C[C@@H]1CCNC1=O)C(=O)c1nc2cc(F)ccc2s1` [Compound 44], on SARS-CoV-2 M^pro/3CL^pro, the concentration for half-maximal inhibition (IC50) was 120 ± 10 nM and the “IC50 fold change to 5h (in parentheses)” value came to 0.34. The compound also returned a half-life in “in vivo” of around 30 min. Besides, in the series “in vitro”, the CC50 was above 100000 nM.
For the compound `COc1cccc2[nH]c(C(=O)N[C@@H](CC(C)C)C(=S)N[C@@H](C[C@@H]3CCNC3=O)C(=O)c3nc4ccccc4s3)cc12` [Compound 60], on SARS-CoV-2 M^pro/3CL^pro, the midpoint of inhibition, the IC50, lay at 990 ± 60 nM and the “IC50 fold change to 5h (in parentheses)” value stood at 2.8. In addition, the “blood concentrations” value in series [2] (i.v. 2.0 mg/kg) is “High blood concentrations of compound 60 were maintained after 60 min, and even 240 min had passed”. Further, the “half-life, times longer than that of the parent compound” value in series [2] (i.v. 2.0 mg/kg, relative to 5h (2)) is reported as 2–3 times. This compound also came in with a half-life in the series “in vivo” of 50 to 60 min. In addition, the half-maximal cytotoxic concentration (CC50) in the series “in vitro” was above 100000 nM.
Regarding `COc1ccc(F)c2[nH]c(C(=O)N[C@@H](CC(C)C)C(=O)N[C@@H](C[C@@H]3CCNC3=O)C(=O)c3nc4c(F)cccc4s3)cc12` [Compound 3], in series [1], the EC75 amounted to 460 ± 20 nM and the 99% effect concentration (EC99) was found to be 0.97 ± 0.0020 µM. Moreover, on SARS-CoV-2 M^pro/3CL^pro, the IC50 amounted to 37 ± 1 nM and the “IC50 fold change to 5h (in parentheses)” value is recorded as 0.10. In series [3], the “cytotoxicity in immunostaining experiments” value is reported as “no significant cytotoxicity at concentrations up to 100 μM”. In addition, the 50% cytotoxic concentration (CC50) in “in vitro” is above 100000 nM.
Consider `CCC(CC)COC(=O)[C@H](C)N[P@](=O)(OC[C@H]1O[C@@](C#N)(c2ccc3c(N)ncnn23)[C@H](O)[C@@H]1O)Oc1ccccc1` [Remdesivir, reference compound], for which the half-maximal cytotoxic concentration (CC50) in “in vitro” was above 100000 nM.
